# Results: patent US20090209492A1, “Lipase Inhibitors” (TRUSTEES OF TUFTS COLLEGE, priority 2004, published 2009)
# Molecular target: T1, endothelial lipase (Homo sapiens, UniProt Q9Y5X9)
# T1 sequence (Q9Y5X9 21-500): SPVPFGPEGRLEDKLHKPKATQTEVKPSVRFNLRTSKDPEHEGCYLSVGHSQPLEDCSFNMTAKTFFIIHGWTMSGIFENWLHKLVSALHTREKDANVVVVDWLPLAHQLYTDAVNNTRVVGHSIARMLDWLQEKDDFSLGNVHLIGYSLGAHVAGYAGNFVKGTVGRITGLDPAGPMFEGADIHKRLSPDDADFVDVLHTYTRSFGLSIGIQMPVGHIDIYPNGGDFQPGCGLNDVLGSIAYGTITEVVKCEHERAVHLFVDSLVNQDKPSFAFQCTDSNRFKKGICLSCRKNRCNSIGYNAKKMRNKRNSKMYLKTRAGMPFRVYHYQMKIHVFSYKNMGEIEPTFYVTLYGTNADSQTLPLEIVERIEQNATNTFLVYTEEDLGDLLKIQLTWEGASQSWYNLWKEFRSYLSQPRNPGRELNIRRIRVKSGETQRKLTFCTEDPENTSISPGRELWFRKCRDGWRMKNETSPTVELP
# Assay: Endothelial lipase inhibiting activity of boronic acids
# Format: biochemical
# Details: for inhibition at 50 µM: 50 micromolar solution of each compound; for IC50: endothelial lipase
# Procedure: The endothelial lipase inhibiting activity of various aliphatic boronic acids was tested.
# The endothelial lipase inhibiting activity of various aromatic boronic acids was tested.
inhibition at 50 µM (aliphatic boronic acids) [%],inhibition at 50 µM (aromatic boronic acids) [%],also measured,SMILES
63,–,–,CCCCC/C=C/B(O)O
90,–,–,CCCCCCCCCCCCCCCB(O)O
72,–,IC50 (aliphatic boronic acids): 26 µM,C=CCCCB(O)O
9,–,–,CC(C)CB(O)O
53,–,–,CCCCCCB(O)O
–,1,–,OB(O)C1CCCCC1
–,83,IC50 (aromatic boronic acids): 11 µM,CCc1ccc(B(O)O)cc1
62,–,–,CCCCCCCCCCCCCCCCB(O)O
89,–,IC50 (aliphatic boronic acids): 1 µM,CCCCCCCCCCCCCCB(O)O
82,–,–,CCCCCCC/C=C/B(O)O
–,88,IC50 (aromatic boronic acids): 17 µM,Cc1ccc(B(O)O)cc1
–,80,IC50 (aromatic boronic acids): 26 µM,CC(=O)c1ccc(B(O)O)cc1
–,7,–,OB(O)C1CCCC1
77,–,–,CCCCCC/C=C/B(O)O
–,10,–,OB(O)Cc1ccccc1
–,60,–,O=Cc1ccc(B(O)O)cc1
42,–,–,CCCCCB(O)O
